27 molecules from patent US20230416248A1, “COMPOUNDS AND USES THEREOF” (Foghorn Therapeutics Inc., priority 2020, published 2023) can be followed below.

Molecules are shown by their SMILES.

Assay [1] addresses T1, BRM (Homo sapiens, UniProt P51531).
T1 construct: made in house; host or cells: High Five insect cells
The experiment in a line: ATPase catalytic activity of BRM, ADP-Glo in vitro biochemical assay. Particulars: for IC50: ADP-Glo ATPase assay, 30 nM BRM, 400 μM ATP; for Ratio* (BRG1 IC50 (μM) divided by BRM IC50 (μM)): selectivity ratio BRG1 IC50 / BRM IC50. In outline:
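ADP-Glo luminescence, after depletion of leftover ATP and conversion of ADP, reported the activity. The 1 h room-temperature reaction held 400 μM ATP, 20 nM salmon sperm DNA and 30 nM BRM in 20 mM Tris pH 8, 20 mM MgCl2, 50 mM NaCl, 0.1% Tween-20, 1 mM DTT.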
(In general: ADP-Glo first removes unused ATP, then detects ADP through luciferase.)

Assay [2] has as its target T2, BRG-1 (Homo sapiens, UniProt P51532).
T2 construct: made in house; host or cells: High Five insect cells
The assay is described as follows: ATPase catalytic activity of BRG-1, ADP-Glo in vitro biochemical assay. Particulars: ADP-Glo ATPase assay, 30 nM BRG-1, 400 μM ATP; read-out: BRG1 IC50. An outline of the steps: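 ADP produced by BRG-1 was quantified by luciferase luminescence. A 60 min room-temperature ADP-to-ATP conversion followed a 40 min ATP-depletion step.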

T2 sequence (P51532 whole entry): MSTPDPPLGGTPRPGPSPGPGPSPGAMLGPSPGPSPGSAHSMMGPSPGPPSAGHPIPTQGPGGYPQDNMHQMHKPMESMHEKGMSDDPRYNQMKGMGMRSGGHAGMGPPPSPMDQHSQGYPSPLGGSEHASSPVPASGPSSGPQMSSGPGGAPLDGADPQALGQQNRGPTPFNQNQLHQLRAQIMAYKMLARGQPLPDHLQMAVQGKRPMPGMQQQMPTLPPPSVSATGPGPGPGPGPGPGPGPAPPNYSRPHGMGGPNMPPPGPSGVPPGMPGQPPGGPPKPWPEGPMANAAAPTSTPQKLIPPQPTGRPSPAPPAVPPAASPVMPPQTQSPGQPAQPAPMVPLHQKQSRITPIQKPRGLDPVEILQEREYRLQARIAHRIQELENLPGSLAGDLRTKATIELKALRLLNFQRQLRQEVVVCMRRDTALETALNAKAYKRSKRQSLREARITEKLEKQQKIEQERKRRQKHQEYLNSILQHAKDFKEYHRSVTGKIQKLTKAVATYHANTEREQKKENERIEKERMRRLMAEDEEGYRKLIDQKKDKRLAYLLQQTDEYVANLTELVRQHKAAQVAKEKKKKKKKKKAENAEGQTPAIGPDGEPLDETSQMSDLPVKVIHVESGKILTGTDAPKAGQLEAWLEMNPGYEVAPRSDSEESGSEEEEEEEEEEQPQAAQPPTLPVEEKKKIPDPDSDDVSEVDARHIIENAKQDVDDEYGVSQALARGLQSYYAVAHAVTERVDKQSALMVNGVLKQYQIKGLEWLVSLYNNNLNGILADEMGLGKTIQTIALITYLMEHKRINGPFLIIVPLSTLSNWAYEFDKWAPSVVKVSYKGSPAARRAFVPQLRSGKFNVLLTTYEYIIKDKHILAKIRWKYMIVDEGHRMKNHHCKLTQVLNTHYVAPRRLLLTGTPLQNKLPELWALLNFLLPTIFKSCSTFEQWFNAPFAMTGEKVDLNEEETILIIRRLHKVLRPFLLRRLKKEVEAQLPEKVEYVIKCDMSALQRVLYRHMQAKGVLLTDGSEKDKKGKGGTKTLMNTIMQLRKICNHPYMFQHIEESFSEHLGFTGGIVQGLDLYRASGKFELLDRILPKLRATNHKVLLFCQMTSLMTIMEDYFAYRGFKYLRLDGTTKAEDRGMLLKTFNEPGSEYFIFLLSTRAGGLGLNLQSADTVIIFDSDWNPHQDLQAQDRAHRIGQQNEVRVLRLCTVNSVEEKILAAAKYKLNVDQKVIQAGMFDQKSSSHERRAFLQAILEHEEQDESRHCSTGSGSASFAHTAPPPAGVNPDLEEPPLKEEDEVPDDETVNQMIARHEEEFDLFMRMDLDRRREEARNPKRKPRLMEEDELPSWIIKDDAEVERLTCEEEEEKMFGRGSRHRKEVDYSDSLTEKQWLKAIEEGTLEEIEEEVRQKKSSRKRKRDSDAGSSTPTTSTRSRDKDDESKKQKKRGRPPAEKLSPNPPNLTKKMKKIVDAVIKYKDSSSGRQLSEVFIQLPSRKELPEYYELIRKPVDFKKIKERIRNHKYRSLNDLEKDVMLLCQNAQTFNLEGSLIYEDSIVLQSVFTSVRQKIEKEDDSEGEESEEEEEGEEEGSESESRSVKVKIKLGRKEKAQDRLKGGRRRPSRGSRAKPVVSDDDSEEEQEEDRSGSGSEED
T1 sequence (P51531 whole entry): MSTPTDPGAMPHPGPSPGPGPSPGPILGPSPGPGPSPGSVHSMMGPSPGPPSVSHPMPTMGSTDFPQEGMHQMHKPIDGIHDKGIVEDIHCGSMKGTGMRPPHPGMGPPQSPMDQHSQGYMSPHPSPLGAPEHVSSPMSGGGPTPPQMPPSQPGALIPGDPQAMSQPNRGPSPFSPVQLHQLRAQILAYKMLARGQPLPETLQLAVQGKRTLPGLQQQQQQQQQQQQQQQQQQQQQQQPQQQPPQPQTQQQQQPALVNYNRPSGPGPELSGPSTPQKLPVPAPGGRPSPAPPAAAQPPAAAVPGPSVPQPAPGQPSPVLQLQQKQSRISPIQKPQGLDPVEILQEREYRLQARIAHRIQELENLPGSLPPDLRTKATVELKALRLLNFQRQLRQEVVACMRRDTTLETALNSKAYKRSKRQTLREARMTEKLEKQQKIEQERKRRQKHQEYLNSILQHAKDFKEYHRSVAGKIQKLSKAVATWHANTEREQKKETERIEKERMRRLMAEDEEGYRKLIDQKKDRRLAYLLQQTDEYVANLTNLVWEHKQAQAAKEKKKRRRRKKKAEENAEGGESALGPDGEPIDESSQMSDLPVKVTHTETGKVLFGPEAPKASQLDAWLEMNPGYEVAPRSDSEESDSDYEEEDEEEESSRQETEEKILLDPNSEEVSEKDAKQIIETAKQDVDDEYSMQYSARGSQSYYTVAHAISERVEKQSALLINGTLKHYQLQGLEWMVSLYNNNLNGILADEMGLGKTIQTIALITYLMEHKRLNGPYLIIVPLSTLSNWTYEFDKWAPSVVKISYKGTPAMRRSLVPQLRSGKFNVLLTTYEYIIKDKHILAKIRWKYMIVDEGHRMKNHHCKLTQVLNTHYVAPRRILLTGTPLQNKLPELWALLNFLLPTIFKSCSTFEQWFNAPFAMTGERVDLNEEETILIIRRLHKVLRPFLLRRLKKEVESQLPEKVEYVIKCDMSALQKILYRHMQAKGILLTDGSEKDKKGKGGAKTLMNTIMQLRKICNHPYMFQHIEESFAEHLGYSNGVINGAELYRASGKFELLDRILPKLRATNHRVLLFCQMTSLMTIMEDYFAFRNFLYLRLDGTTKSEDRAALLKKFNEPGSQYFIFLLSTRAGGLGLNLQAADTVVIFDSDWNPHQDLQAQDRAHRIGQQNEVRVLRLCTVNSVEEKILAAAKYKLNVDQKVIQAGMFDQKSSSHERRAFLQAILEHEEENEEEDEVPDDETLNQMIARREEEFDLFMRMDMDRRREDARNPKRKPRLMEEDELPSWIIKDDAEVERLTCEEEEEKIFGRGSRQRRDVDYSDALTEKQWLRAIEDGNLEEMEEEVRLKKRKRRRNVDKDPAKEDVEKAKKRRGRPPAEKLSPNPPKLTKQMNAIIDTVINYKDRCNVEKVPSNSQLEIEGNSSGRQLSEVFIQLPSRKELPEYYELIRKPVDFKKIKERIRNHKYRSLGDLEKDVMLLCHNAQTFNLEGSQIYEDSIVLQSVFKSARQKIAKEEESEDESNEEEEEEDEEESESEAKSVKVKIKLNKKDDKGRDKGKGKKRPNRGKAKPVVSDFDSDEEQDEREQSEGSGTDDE

Turning to `Cn1ccc2ccc(-c3ccc4cnc(CNC(=O)c5ccc6c(c5)S(=O)(=O)CCOC6)cc4n3)nc21` [Compound 136], in assay [1], the concentration for half-maximal inhibition (IC50) stood at 33.4 nM and the “Ratio* (BRG1 IC50 (μM) divided by BRM IC50 (μM))” value is 7.15. Further, the IC50 in assay [2] came out at 239 nM.
The like results for `O=C(NCc1cc2nc(-c3ccc(F)c(OC(F)F)n3)ccc2cn1)c1ccc2c(c1)S(=O)(=O)CCOC2` [Compound 137] were, in that order, 22.5 nM, 16.99 and 382 nM.
For `C[C@@H]1CN(c2cccc(-c3ccc4cnc(CNC(=O)c5ccc(CC(F)F)c(S(C)(=O)=O)c5)cc4n3)n2)C[C@H](C)O1` [Compound 138], in assay [1], the IC50 is 10.8 nM and the “Ratio* (BRG1 IC50 (μM) divided by BRM IC50 (μM))” value worked out at 4.70. Also, the IC50 in assay [2] came to 50.7 nM.
For the molecule `O=C(NCc1cc2nc(-c3ccc4c(n3)OCC4)ccc2cn1)c1ccc2c(c1)S(=O)(=O)CCOC2` [Compound 139], in assay [1], the IC50 is 432 nM and the “Ratio* (BRG1 IC50 (μM) divided by BRM IC50 (μM))” value was 4.81. For the same molecule, in assay [2], the IC50 was determined as 2070 nM.
As to `O=C(NCc1cc2nc(-c3ccc4ccn(CC(F)F)c4n3)ccc2cn1)c1ccc2c(c1)S(=O)(=O)CCOC2` [Compound 140], in assay [1], the IC50 turned out to be 35.2 nM and the “Ratio* (BRG1 IC50 (μM) divided by BRM IC50 (μM))” value is 6.92. In assay [2], the IC50 turned out to be 243 nM.
With `C[C@@H]1CN(c2cccc(-c3cnc4cnc(CNC(=O)c5ccc6c(c5)S(=O)(=O)CCOC6)cc4n3)c2)C[C@H](C)O1` [Compound 141], in assay [1], half-maximal inhibition (IC50) was put at 13 nM and the “Ratio* (BRG1 IC50 (μM) divided by BRM IC50 (μM))” value is on record as 12.97. In addition, the IC50 in assay [2] came to 169 nM.
Regarding `O=C(NCc1cc2nc(-c3cccc(C4(F)COC4)n3)ccc2cn1)c1ccc2c(c1)S(=O)(=O)CCOC2` [Compound 142], the IC50 in assay [1] was 230 nM; in assay [2] it was 2660 nM. Moreover, the “Ratio* (BRG1 IC50 (μM) divided by BRM IC50 (μM))” value in assay [1] is listed as 11.55.
Regarding `C[C@@H]1CN(c2cccc(-c3ccc4cnc(CNC(=O)c5cc(Cl)c6c(c5)S(=O)(=O)CCOC6)cc4n3)n2)C[C@H](C)O1` [Compound 143], in assay [1], inhibition was half-maximal at 7.6 nM (IC50) and the “Ratio* (BRG1 IC50 (μM) divided by BRM IC50 (μM))” value is listed as 14.36. Further, the IC50 in assay [2] was 108 nM.
Take `CN1CCN(c2cccc(-c3ccc4cnc(CNC(=O)c5ccc6c(c5)S(=O)(=O)CCOC6)cc4n3)n2)CC1` [Compound 144]: in assay [1], 147 nM corresponded to half-maximal inhibition (IC50) and the “Ratio* (BRG1 IC50 (μM) divided by BRM IC50 (μM))” value was found to be 9.21. Further, the IC50 in assay [2] came to 1350 nM.
The like results for `COCCN(C)c1cccc(-c2ccc3cnc(CNC(=O)c4ccc5c(c4)S(=O)(=O)CCOC5)cc3n2)n1` [Compound 145] were, in that order, 3.6 nM, 15.77 and 57.1 nM.
Consider `Cc1cc2c(-c3ccc4cnc(CNC(=O)c5ccc6c(c5)S(=O)(=O)CCOC6)cc4n3)ccnc2n1C` [Compound 146], for which, in assay [1], inhibition was half-maximal at 15.3 nM (IC50) and the “Ratio* (BRG1 IC50 (μM) divided by BRM IC50 (μM))” value is listed as 12.92. Further, the IC50 in assay [2] stood at 197 nM.
For `C[C@@H]1CN(c2cccc(-c3ccc4cnc(CNC(=O)c5cc(F)c(C(F)F)c(S(C)(=O)=O)c5)cc4n3)n2)C[C@H](C)O1` [Compound 147], in assay [1], the half-inhibitory concentration (IC50) came out at 15.6 nM and the “Ratio* (BRG1 IC50 (μM) divided by BRM IC50 (μM))” value worked out at 25.22. Moreover, the IC50 in assay [2] came out at 394 nM.
As for `COc1nn([C@H]2C[C@@H](F)C2)cc1-c1ccc2cnc(CNC(=O)c3ccc4c(c3)S(=O)(=O)CCOC4)cc2n1` [Compound 148], in assay [1], half-maximal inhibition (IC50) required 455 nM and the “Ratio* (BRG1 IC50 (μM) divided by BRM IC50 (μM))” value was 6.80. The IC50 in assay [2] came to 3090 nM.
As for `COc1nn([C@H]2C[C@H](F)C2)cc1-c1ccc2cnc(CNC(=O)c3ccc4c(c3)S(=O)(=O)CCOC4)cc2c1` [Compound 149], in assay [1], it took 36.6 nM to reach half-maximal inhibition (IC50) and the “Ratio* (BRG1 IC50 (μM) divided by BRM IC50 (μM))” value was found to be 22.13. The IC50 in assay [2] turned out to be 810 nM.
For `O=C(NCc1cc2nc(N3CCCc4cccnc43)ccc2cn1)c1ccc2c(c1)S(=O)(=O)CCOC2` [Compound 150], in assay [1], the IC50 amounted to 33.8 nM and the “Ratio* (BRG1 IC50 (μM) divided by BRM IC50 (μM))” value is 11.71. In addition, the IC50 in assay [2] is 396 nM.
In the case of `Cn1ccc2c(-c3ccc4cnc(CNC(=O)c5ccc6c(c5)S(=O)(=O)CCOC6)cc4n3)ccnc21` [Compound 151], in assay [1], the concentration for half-maximal inhibition (IC50) was 60.8 nM and the “Ratio* (BRG1 IC50 (μM) divided by BRM IC50 (μM))” value worked out at 11.00. In assay [2], the IC50 was 669 nM.
With `COc1nn([C@H]2C[C@H](F)C2)cc1-c1ccc2cnc(CNC(=O)c3ccc4c(c3)S(=O)(=O)CCOC4)cc2n1` [Compound 152], the figures for the IC50 in assay [1] and in assay [2] were 136 nM and 2140 nM, respectively. In assay [1], the “Ratio* (BRG1 IC50 (μM) divided by BRM IC50 (μM))” value worked out at 15.77.
Take `C[C@@H]1CN(c2cc(-c3ccc4cnc(CNC(=O)c5ccc6c(c5)S(=O)(=O)CCOC6)cc4n3)ccn2)C[C@H](C)O1` [Compound 153]: in assay [1], the IC50 was determined as 46.3 nM and the “Ratio* (BRG1 IC50 (μM) divided by BRM IC50 (μM))” value is given as 9.74. Further, the IC50 in assay [2] came to 451 nM.
In the case of `O=C(NCc1cc2nc(-c3cccc(C4(F)CCC4)n3)ccc2cn1)c1ccc2c(c1)S(=O)(=O)CCOC2` [Compound 154], in assay [1], the IC50 stood at 142 nM and the “Ratio* (BRG1 IC50 (μM) divided by BRM IC50 (μM))” value is reported as 14.94. Also, the IC50 in assay [2] came out at 2130 nM.
`C[C@@H]1CN(c2cccc(-c3ccc4cnc(CNC(=O)c5ccc6c(c5)S(=O)(=O)[C@@H](C)COC6)cc4n3)n2)C[C@H](C)O1` [Compound 155]: the IC50 stood at 4.5 nM in assay [1] and 25.2 nM in assay [2]. For the same molecule, the “Ratio* (BRG1 IC50 (μM) divided by BRM IC50 (μM))” value in assay [1] is reported as 5.59.
As for `O=C(NCc1cc2nc(N3CCCc4ncccc43)ccc2cn1)c1ccc2c(c1)S(=O)(=O)CCOC2` [Compound 156], the figures for the IC50 in assay [1] and in assay [2] were 366 nM and 1920 nM, respectively. In assay [1], the “Ratio* (BRG1 IC50 (μM) divided by BRM IC50 (μM))” value stood at 5.25.
With `C[C@@H]1CN(c2nccc(-c3ccc4cnc(CNC(=O)c5ccc(C(F)F)c(S(C)(=O)=O)c5)cc4n3)n2)C[C@H](C)O1` [Compound 157], in assay [1], the IC50 was 14.5 nM and the “Ratio* (BRG1 IC50 (μM) divided by BRM IC50 (μM))” value amounted to 21.99. The half-inhibitory concentration (IC50) in assay [2] came to 320 nM.
As to `C[C@@H]1CN(c2cccc(-c3ccc4cnc(CNC(=O)c5ccc(C(F)F)c(S(C)(=O)=O)c5)cc4n3)n2)C[C@@H](C)O1` [Compound 158], the IC50 in assay [1] was found to be 13.1 nM; in assay [2], 262 nM. Further, the “Ratio* (BRG1 IC50 (μM) divided by BRM IC50 (μM))” value in assay [1] worked out at 20.03.
Regarding `C[C@@H]1CN(c2cccc(-c3ccc4cnc(CNC(=O)c5ccc6c(c5)S(=O)(=O)[C@H](C)COC6)cc4n3)n2)C[C@H](C)O1` [Compound 159], in assay [1], the half-maximal inhibitory concentration (IC50) came to 36.7 nM and the “Ratio* (BRG1 IC50 (μM) divided by BRM IC50 (μM))” value came to 11.15. In assay [2], the IC50 was 409 nM.
Regarding `C[C@@H]1CN(c2cccc(-c3ccc4nnc(CNC(=O)c5ccc6c(c5)S(=O)(=O)CCOC6)cc4c3)n2)C[C@H](C)O1` [Compound 160], in assay [1], inhibition was half-maximal at 3 nM (IC50) and the “Ratio* (BRG1 IC50 (μM) divided by BRM IC50 (μM))” value came to 4.54. Further, the IC50 in assay [2] was 13.6 nM.
In the case of `C[C@@H]1CN(c2cccc(-c3cnc4cnc(CNC(=O)c5ccc6c(c5)S(=O)(=O)CCOC6)cc4c3)n2)C[C@H](C)O1` [Compound 161], in assay [1], inhibition was half-maximal at 4.7 nM (IC50) and the “Ratio* (BRG1 IC50 (μM) divided by BRM IC50 (μM))” value came out at 9.62. The IC50 in assay [2] was 45.2 nM.
The like results for `C[C@H]1CN(c2cccc(-c3ccc4cnc(CNC(=O)c5ccc(C(F)F)c(S(C)(=O)=O)c5)cc4n3)n2)C[C@H](C)O1` [Compound 162] were, in that order, 38.4 nM, 14.67 and 564 nM.

What is called IC50 is the midpoint of a concentration-inhibition curve.
